This data set concerns rat. Briefly: single oral administration toxicity to rat (minimum lethal dose). Format: in vivo. As for the experimental part:
The toxicity of the compounds of the present invention is very low and therefore, the compounds may be considered safe for pharmaceutical use. For example, a minimum of lethal dose of N-hydroxy-5-hydroxy-2(S)-methyl-4(S) (4-phenoxybenzoyl)aminopentanamide and N-hydroxy-5-ethoxymethyloxy-2(S)-methyl-4(S)-(4-phenoxybenzoyl)aminopentanamide by single oral administration to rat was 2000 mg/kg.

As for `C[C@@H](C[C@@H](CO)NC(=O)c1ccc(Oc2ccccc2)cc1)C(=O)NO` [Compound (1), N-hydroxy-5-hydroxy-2 (S)-methyl-4(S)-(4-phenoxybenzoyl) aminopentanamide], the “minimum of lethal dose” value is listed as 2000 mg/kg.
Take `CCOCOC[C@H](C[C@H](C)C(=O)NO)NC(=O)c1ccc(Oc2ccccc2)cc1` [Compound (2), N-hydroxy 5-ethoxymethyloxy-2(S)-methyl-4(S)-(4-phenoxybenzoyl) aminopentanamide]: the “minimum of lethal dose” value worked out at 2000 mg/kg.

Source of the values: patent US20060014835A1, “Therapeutic agent for chronic obstructive pulmonary disease” (priority 2002, published 2006).
